What all share (assay type): cell-based, human
One test relates to Ikaros. Put plainly: Ikaros expression in chronically stimulated CAR T cells with concurrent treatment. The note with it: 100 nM. The procedure:
Anti-CD19 CAR-expressing T cells were produced substantially as described in Example 1. To subject cells to chronic stimulation conditions, the CAR+ T cells were stimulated with 30 μg/mL plate-bound anti-idiotypic (anti-ID) antibody (see e.g. WO2018/023100) for 6 days in the presence of (S)-3-[4-(4-morpholin-4-ylmethyl-benzyloxy)-1-oxo-1,3-dihydro-isoindol-2-yl]-piperidine-2,6-dione (Compound A) or a vehicle control, to induce chronic stimulation. […] Cells were assessed at various times for cytolytic function, CAR T cell number and cytokine production.
After the long-term, chronic stimulation with concurrent treatment with Compound A, CAR T cells were assessed for Ikaros expression or for CAR T function following rechallenge with CD19-expressing target cells.
Expression of Ikaros in CAR T cells that had been subjected to chronic stimulation in the presence of Compound A (1 nM, 10 nM or 100 nM) was measured by intracellular flow cytometry analysis using an antibody to Ikaros.

For test [1], the system named is anti-CD19 CAR T cells. The experiment in a line: RNA-seq gene expression of anti-CD19 CAR T cells sorted from tumor spheroids. The procedure:
Gene expression analysis of anti-CD19 CAR T cells sorted from tumor spheroids 5 days after co-culture as described above was analyzed by RNA sequencing (RNA-seq) on the complementary DNA (cDNA) samples prepared from the RNA isolated from the long-term stimulated CAR-expressing T cells or on CAR-expressing T cells that had not undergone the long-term stimulation. Libraries for RNA-seq were sequenced on Illumina NextSeq system. Reads were mapped to the human reference genome GRCh38, and gene expression levels were quantified in Array Studio. Differential expression (DE, for RNA-seq) analysis was performed using DESeq2.
The dots on the top left quadrant represent genes induced by chronic stimulation and the dots on the lower right quadrant represent genes reversed by Compound A.
Pathway enrichment analysis of the differentially expressed genes were performed using clusterProfiler.
Gene expression analysis by RNA-seq was carried out substantially as described in Example 3.

For test [2], the system named is anti-CD19 CAR T cells. Put plainly: Proliferation and cell cycle of acutely stimulated anti-CD19 CAR T cells. Here is the method:
Cell cycle and proliferation of anti-CD19 CAR T cells was measured by labeling cells using the Click-iT™ EdU Cell Proliferation Kit after which the prepared cells were analyzed by flow cytometry for DNA content. Numbers of anti-CD19 CAR T cells were measured over time using an IncuCyte® Live-Cell Analysis System.
As shown, treatment with Compound A reduced the proliferation of anti-CD19 CAR T cells. To further assess the effects on reducing proliferation, cell cycle was measured by flow cytometry by analyzing DNA content. FIG. 7D depicts plots of the percentage of cells in G1 phase (mean±SEM from data pooled from 3 donors and 2 independent experiments).

With `O=C1CC[C@H](N2Cc3c(OCc4ccc(CN5CCOCC5)cc4)cccc3C2=O)C(=O)N1` [Compound A, (S)-3-[4-(4-morpholin-4-ylmethyl-benzyloxy)-1-oxo-1,3-dihydro-isoindol-2-yl]-piperidine-2,6-dione], the “Ikaros expression in chronically stimulated cells” value in the test on Ikaros is listed as “reduction of Ikaros expression was maintained”. Besides, the “expression changes in genes of T cell function pathways after chronic stimulation” value is listed as “can be reversed” with anti-CD19 CAR T cells [1] (concurrent treatment) and “can also be reversed” in the test on anti-CD19 CAR T cells [1] (rescue treatment). In addition, the “proliferation of anti-CD19 CAR T cells” value in the test on anti-CD19 CAR T cells [2] (1 nM, 10 nM or 100 nM) is reported as “reduced”. For the same compound, the “percentage of cells in the G1 phase” value in the test on anti-CD19 CAR T cells [2] (3 days treatment) was “statistically significant increase”.

For the origin of these results see patent US20220401483A1, “COMBINATION OF A T CELL THERAPY AND (S)-3-[4-(4-MORPHOLIN-4-YLMETHYL-BENZYLOXY)-L-OXO-L,3-DIHYDRO-ISOINDOL-2-YL]-PIPERIDINE-2,6-DIONE” (Juno Therapeutics, Inc., priority 2019, published 2022).
